Patent publication US9422307B2, “2,4,7-substituted thieno[3,2-d]pyrimidine compounds as protein kinase inhibitors” (KOREA INSTITUTE OF SCIENCE AND TECHNOLOGY, priority 2009, dated 2016)

How the values were obtained:
Full sequence FAK = Full sequence FAK (Homo sapiens (Human), UniProt Q05397); assay: Measurement of FAK kinase activity (ULight-LANCE assay); type: biochemical; conditions: TR-FRET, 3 nM FAK, 10 μM ATP; read-out: FAK inhibition activity (IC50)
Description: ULight-poly GT (PerkinElmer #TRF0100-D), Eu-anti-phospho-Tyr (PT66) (PerkinElmer #AD0068) and Lance detection buffer (PerkinElmer #CR-97-100) were purchased from PerkinElmer. […] 4× ULight-poly GT was adjusted to a final concentration of 100 nM. ATP (Sigma #A2383) was adjusted to a final concentration of 10 μM and in 2.5 μL aliquots. The test compound was sequentially diluted at 12 concentrations and treated with an amount of 0.5 μL. After shaking well and allowing to react at room temperature for 60 minutes, 5 μL of ethylenediaminetetraacetic acid (EDTA, final concentration 40 mM) diluted in Lance detection buffer (Lance detection buffer) was added and the mixture was left at room temperature for 5 minutes to stop the reaction. After adding 4× Eu-anti-phospho-Tyr (PT66) phosphorylated antibody diluted to a final concentration of 2 nM in detection buffer with an amount of 5 μL, and reaction was performed at room temperature for 60 minutes.

[1] = test system: HT-29 human colon adenocarcinoma cells; assay: Inhibition of proliferation of HT-29 human colon adenocarcinoma cells (MTT assay); type: cell-based; conditions: HT-29 cells, read-out: Inhibition activity against proliferation of the HT-29 cells (GI50)
Description: HT-29 human colon adenocarcinoma cells were cultured in DMEM [10% FBS, 1% penicillin/streptomycin] at 37° C. in the presence of 5% CO2. The cultured HT-29 cells were harvested with 0.05% trypsin-0.02% EDTA and seeded in a 96-well plate at 5×10^3 cells per well.
3-(4,5-Dimethylthiazol-2-yl)-2,5-diphenyltetrazolium bromide (MTT) assay (CellTiter 96 Assay, Promega) was used to measure cell viability. After adding 15 μL of a dye per well and culturing for 2 hours, the cells were treated with 100 μL of a stop solution and absorbance was measured 24 hours later. The test compound was treated a day after plating. The test compound had been sequentially diluted at 12 concentrations from a 10 mM stock solution using sterilized dimethylsulfoxide (DMSO) and treated with an amount of 0.5 μL. Absorbance at 590 nm was recorded using EnVision2103, and GI50 value was calculated using GraphPad Prism 4.0 software.

[2] = test system: prostate cancer PC-3, breast cancer BT-474, colon LoVo, lung cancer NCI-H460, glioblastoma U-87 MG and pancreatic cancer BxPC-3 cells; conditions: cited from earlier work
tumor = conditions: concurrent administration with docetaxel, animal model, P values<0.01; cited from earlier work

Full sequence FAK, sequence (Q05397 whole entry): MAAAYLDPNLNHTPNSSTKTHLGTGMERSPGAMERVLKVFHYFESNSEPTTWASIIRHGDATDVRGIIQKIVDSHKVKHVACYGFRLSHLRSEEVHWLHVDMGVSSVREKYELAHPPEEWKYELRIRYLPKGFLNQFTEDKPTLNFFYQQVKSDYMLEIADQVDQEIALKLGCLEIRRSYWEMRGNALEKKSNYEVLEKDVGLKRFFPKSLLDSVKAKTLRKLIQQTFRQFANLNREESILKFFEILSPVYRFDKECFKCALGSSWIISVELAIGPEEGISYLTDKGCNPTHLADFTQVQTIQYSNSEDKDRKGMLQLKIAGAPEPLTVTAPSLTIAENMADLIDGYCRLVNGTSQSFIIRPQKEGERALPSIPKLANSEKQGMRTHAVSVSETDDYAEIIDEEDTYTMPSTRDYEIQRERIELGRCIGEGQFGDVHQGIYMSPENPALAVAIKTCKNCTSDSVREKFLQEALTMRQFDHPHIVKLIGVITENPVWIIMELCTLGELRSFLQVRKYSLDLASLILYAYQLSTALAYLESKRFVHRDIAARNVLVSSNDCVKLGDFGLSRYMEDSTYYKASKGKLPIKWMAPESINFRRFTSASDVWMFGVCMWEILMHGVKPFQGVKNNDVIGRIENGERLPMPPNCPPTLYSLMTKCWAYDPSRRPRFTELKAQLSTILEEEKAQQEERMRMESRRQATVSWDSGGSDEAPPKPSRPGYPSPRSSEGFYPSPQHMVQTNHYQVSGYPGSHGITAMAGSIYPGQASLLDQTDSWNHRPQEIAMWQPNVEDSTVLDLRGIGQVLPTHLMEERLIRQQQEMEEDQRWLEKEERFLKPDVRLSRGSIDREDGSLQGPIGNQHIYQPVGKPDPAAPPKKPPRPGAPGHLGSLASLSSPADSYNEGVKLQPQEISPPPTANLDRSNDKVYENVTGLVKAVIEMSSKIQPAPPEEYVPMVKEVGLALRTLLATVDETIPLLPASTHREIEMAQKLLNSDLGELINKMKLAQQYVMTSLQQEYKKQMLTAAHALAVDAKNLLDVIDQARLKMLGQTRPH

Structure (SMILES)	IC50 (Full sequence FAK) [µM]	GI50 [1] [µM]	inhibition of tumor growth or tumor degeneration ([2]; human tumor xenograft, 25-100 mg/kg p.o.)	toxicity observed ([2]; in vivo)	tumor reduction (tumor)
CNC(=O)c1cccc(-c2csc3c(N)nc(Nc4ccc(N5CCOCC5)nc4)nc23)c1 [Example 2, 3-(4-amino-2-(6-morpholinopyridin-3-ylamino)thieno[3,2-d]pyrimidin-7-yl)-N-methylbenzamide]	< 10	< 10	–	–	–
CNC(=O)c1cccc(-c2csc3c(N)nc(Nc4ccc(N5CCC(O)CC5)cc4)nc23)c1 [Example 3, 3-(4-amino-2-(4-(4-hydroxypiperidin-1-yl)phenylamino)thieno[3,2-d]pyrimidin-7-yl)-N-methylbenzamide]	< 10	< 10	–	–	–
CCN1CCN(c2ccc(Nc3nc(N)c4scc(-c5cccc(C(=O)NC)c5)c4n3)cc2)CC1 [Example 6, 3-(4-amino-2-(4-(4-ethylpiperazin-1-yl)phenylamino)thieno[3,2-d]pyrimidin-7-yl)-N-methylbenzamide]	< 10	< 10	–	–	–
CNC(=O)c1cccc(-c2csc3c(N)nc(Nc4ccc(N5CCC(N6CCCC6)CC5)cc4)nc23)c1 [Example 7, 3-(4-amino-2-(4-(4-(pyrrolidin-1-yl)piperidin-1-yl)phenylamino)thieno[3,2-d]pyrimidin-7-yl)-N-methylbenzamide]	< 10	< 10	–	–	–
COc1cc(Nc2nc(N)c3scc(-c4cccc(NC(=O)C5CC5)c4)c3n2)cc(OC)c1OC [Example 15, N-(3-(4-amino-2-(3,4,5-trimethoxyphenylamino)thieno[3,2-d]pyrimidin-7-yl)phenyl)cyclopropanecarboxamide]	< 10	< 10	–	–	–
CCS(=O)(=O)Nc1cccc(-c2csc3c(N)nc(Nc4cc(OC)c(OC)c(OC)c4)nc23)c1 [Example 17, N-(3-(4-amino-2-(3,4,5-trimethoxyphenylamino)thieno[3,2-d]pyrimidin-7-yl)phenyl)ethanesulfonamide]	< 10	< 10	–	–	–
CNS(=O)(=O)c1cccc(-c2csc3c(N)nc(Nc4cc(OC)c(OC)c(OC)c4)nc23)c1 [Example 26, 3-(4-amino-2-(3,4,5-trimethoxyphenylamino)thieno[3,2-d]pyrimidin-7-yl)-N-methylbenzenesulfonamide]	< 10	< 10	–	–	–
CCN1CCN(c2ccc(Nc3nc(N)c4scc(-c5cccc(NS(C)(=O)=O)c5)c4n3)cn2)CC1 [Example 27, N-(3-(4-amino-2-(6-(4-ethylpiperazin-1-yl)pyridin-3-ylamino)thieno[3,2-d]pyrimidin-7-yl)phenyl)methanesulfonamide]	< 10	< 10	–	–	–
CCN1CCN(c2ccc(Nc3nc(N)c4scc(-c5cnc6ccccc6c5)c4n3)cn2)CC1 [Example 39, N^2-(6-(4-ethylpiperazin-1-yl)pyridin-3-yl)-7-(quinolin-3-yl)thieno[3,2-d]pyrimidin-2,4-diamine]	< 10	< 10	–	–	–
CCN1CCN(c2ccc(Nc3nc(N)c4scc(-c5cnc6ccccc6c5)c4n3)cc2)CC1 [Example 41, N^2-(4-(4-ethylpiperazin-1-yl)phenyl)-7-(quinolin-3-yl)thieno[3,2-d]pyrimidin-2,4-amine]	< 10	< 10	–	–	–
Nc1nc(Nc2ccc(N3CCOCC3)nc2)nc2c(-c3cnc4ccccc4c3)csc12 [Example 42, N^2-(6-morpholinopyridin-3-yl)-7-(quinolin-3-yl)thieno[3,2-d]pyrimidin-2,4-diamine]	< 10	< 10	–	–	–
CCN1CCN(c2cccc(Nc3nc(N)c4scc(-c5cnc6ccccc6c5)c4n3)c2)CC1 [Example 43, N^2-(3-(4-ethylpiperazin-1-yl)phenyl)-7-(quinolin-3-yl)thieno[3,2-d]pyrimidin-2,4-diamine]	< 10	< 10	–	–	–
C#Cc1csc2c(NCc3ccccc3)nc(NC[C@H](C)O)nc12 [Example 44, (S)-1-(4-(benzylamino)-7-ethynylthieno[3,2-d]pyrimidin-2-ylamino)propan-2-ol]	–	< 10	–	–	–
C#Cc1csc2c(N[C@H](C)c3ccccc3)nc(NC[C@H](C)O)nc12 [Example 45, (S)-1-(7-ethynyl-4-((R)-1-phenylethylamino)thieno[3,2-d]pyrimidin-2-ylamino)propan-2-ol]	< 10	< 10	–	–	–
C=Cc1csc2c(NCc3ccccc3)nc(NCCN3CCOCC3)nc12 [Example 46, N^4-benzyl-N^2-(2-morpholinoethyl)-7-vinylthieno[3,2-d]pyrimidin-2,4-diamine]	< 10	< 10	–	–	–
C=Cc1csc2c(N[C@H](C)c3ccccc3)nc(NCCN3CCOCC3)nc12 [Example 47, (R)—N^2-(2-morpholinoethyl)-N^4-(1-phenylethyl)-7-vinylthieno[3,2-d]pyrimidin-2,4-diamine]	< 10	< 10	–	–	–
CCc1csc2c(NCc3ccccc3)nc(NCCN3CCOCC3)nc12 [Example 48, N^4-benzyl-7-ethyl-N^2-(2-morpholinoethyl)thieno[3,2-d]pyrimidin-2,4-diamine]	< 10	< 10	–	–	–
CN(c1ncccc1CNc1nc(Nc2ccc3c(c2)CC(=O)N3)ncc1C(F)(F)F)S(C)(=O)=O [PF-562271]	–	–	42-90%	No special toxicity has been observed	–
CNC(=O)c1ccccc1Nc1nc(Nc2ccc(N3CCOCC3)cc2OC)ncc1Cl [TAE226]	–	–	–	–	85-97%
